{"source": "patent US10722480B2", "about": "“Agent for controlling cells constituting cancer microenvironment or inflammatory microenvironment” (The University of Tokyo, priority 2015, dated 2020)", "key": {"[1]": {"target": "p53-MDM2 interaction (Homo sapiens, UniProt Q00987)", "sequence (Q00987 whole entry)": "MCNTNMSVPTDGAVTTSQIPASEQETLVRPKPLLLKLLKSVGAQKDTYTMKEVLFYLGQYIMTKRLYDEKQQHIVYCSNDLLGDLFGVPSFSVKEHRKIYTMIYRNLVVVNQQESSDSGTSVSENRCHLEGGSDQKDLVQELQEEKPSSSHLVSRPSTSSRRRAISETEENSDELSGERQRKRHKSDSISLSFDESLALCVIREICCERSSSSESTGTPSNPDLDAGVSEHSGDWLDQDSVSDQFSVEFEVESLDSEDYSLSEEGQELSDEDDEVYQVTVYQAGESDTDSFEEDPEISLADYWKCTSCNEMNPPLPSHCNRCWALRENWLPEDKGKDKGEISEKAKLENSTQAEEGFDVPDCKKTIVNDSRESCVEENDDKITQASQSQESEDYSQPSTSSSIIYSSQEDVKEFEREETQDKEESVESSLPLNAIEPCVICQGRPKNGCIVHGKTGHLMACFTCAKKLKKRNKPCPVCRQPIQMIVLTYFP", "test": "HTRF binding inhibition assay, p53-MDM2 control interaction", "excerpt": "By the same HTRF assay as described above, the abilities of disulfiram to inhibit the FROUNT-CCR2 interaction or the FROUNT-CCR5 interaction were investigated. As the CCR5 pro-C peptide, the 16 residues […] (SEQ ID NO:4) in the C-terminal region of CCR5 was used. As a control, the p53-MDM2 interaction (which is inhibited by an MDM-2-specific inhibitor Nutlin), which is also a helix peptide-protein interaction like the interaction between FROUNT and CCR2 or CCR5 but is not related thereto, was used."}, "[2]": {"target": "T1, CCR2 (Homo sapiens, UniProt P41597)", "T1 sequence (P41597 1-360 isoform P41597-2)": "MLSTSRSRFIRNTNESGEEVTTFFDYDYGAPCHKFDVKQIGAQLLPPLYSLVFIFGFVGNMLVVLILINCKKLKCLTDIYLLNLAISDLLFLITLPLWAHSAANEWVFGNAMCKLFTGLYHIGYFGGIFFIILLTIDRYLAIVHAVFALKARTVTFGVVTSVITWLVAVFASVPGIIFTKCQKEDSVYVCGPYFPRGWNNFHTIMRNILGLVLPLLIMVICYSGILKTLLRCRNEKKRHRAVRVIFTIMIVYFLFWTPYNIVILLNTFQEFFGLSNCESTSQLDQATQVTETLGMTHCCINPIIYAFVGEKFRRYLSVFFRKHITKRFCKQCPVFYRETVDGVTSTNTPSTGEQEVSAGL", "test": "Surface plasmon resonance binding to CCR2", "conditions": "SPR"}, "[3]": {"test_system": "LLC (Lewis lung cancer) cells", "test": "Subcutaneous tumor growth model (LLC)", "type": "in vivo, mouse", "conditions": "0.8 mg/g in feed, oral, Day 4 to Day 11, vs control group", "description": "For evaluation of the subcutaneous tumor growth, LLC (Lewis lung cancer) cells (5×10^5) were suspended in 50 μL of PBS, and subcutaneously administered to the right abdomen of each mouse. The tumor size was measured using a caliper twice a week. The tumor volume was calculated according to the following equation. Tumor volume=(tumor shorter diameter)^2×tumor longer diameter/2 In order to investigate the antitumor effect in the subcutaneous tumor growth model, disulfiram was added in an amount of 0.8 mg/g to CE-2 powder feed (CLEA Japan, Inc.) supplemented with 5% sucrose (Wako), and the mice were fed therewith every day during the period from Day 4 to Day 11 post tumor inoculation. The control group was fed with a feed supplemented with the same amount of sucrose."}, "[4]": {"test_system": "B16F10 melanoma cells", "test": "Lung metastasis model (B16F10)", "type": "in vivo, mouse", "conditions": "B16F10 via tail vein, Day 9 post tumor administration", "description": "To provide a lung metastasis model, 1×10^6 B16F10 melanoma cells were suspended in 200 μL of PBS, and administered from the tail vein of each of wild-type C57BL/6 mice. Administration of the inhibitor was carried out one day before, 30 minutes before, and one day after the tumor administration. To provide a control, DMSO and a pyrimidine fluoride anticancer drug 5-FU were administered. The mice were euthanized on Day 9 post tumor administration, and PBS was perfused from the left ventricle, followed by isolation of lungs. Visible lung metastatic lesions in the left lobe were counted."}, "[5]": {"test_system": "LLC tumor cells", "test": "LDH cytotoxicity assay, LLC tumor cells", "type": "cell-based", "conditions": "LDH release, 72 hours", "description": "(§1) The cytotoxicity of inhibitors was tested by using LDH Cytotoxicity Detection Kit (TaKaRa) according to the manufacturer's instructions. Briefly, tumor cells were cultured in the presence or absence of an agent (disulfiram or 5FU) for 72 hours, and the culture supernatant was then collected and tested for the concentration of lactate dehydrogenase released from damaged cells. For measurement of cell proliferation, cells were incubated in a plate well together with an inhibitor for 48 hours. During the last 30 minutes, WST-1 (Dojindo Laboratories) was added to the culture liquid, and the absorbance of each well was measured at 450 nm versus 650 nm reference using EnVision (PerkinElmer) to detect the formazan level."}, "[6]": {"test_system": "B16F10 melanoma cells", "test": "WST-1 proliferation assay, B16F10 melanoma cells", "type": "cell-based", "conditions": "WST-1, 48 hours", "description": "as §1"}, "[7]": {"test_system": "human leukocyte cell line THP-1", "test": "In vitro chemotaxis assay, THP-1", "type": "cell-based", "conditions": "THP-1, concentration without cytotoxicity", "description": "A human leukocyte cell line THP-1 was counted and resuspended in Boyden buffer (RPMI medium supplemented with 0.1% BSA), and the cells were preincubated with disulfiram before the chemotaxis assay. The cell migration activity was measured using a 96-well ChemoTX Chemotaxis Chamber (Neuro probe) with a polycarbonate filter with a pore size of […] Chemokine was applied to the lower chamber of the plate, and the cells were applied to the upper chamber. After incubation at 37° C. in 5% CO2 for 90 minutes, the filter was removed, and the number of migrated cells in the lower chamber was counted using Cell Counting Kit F (Dojindo Laboratories)."}, "[8]": {"target": "T2, aldehyde dehydrogenase (ALDH) (Rattus norvegicus, UniProt P11884)", "T2 sequence (P11884 20-519)": "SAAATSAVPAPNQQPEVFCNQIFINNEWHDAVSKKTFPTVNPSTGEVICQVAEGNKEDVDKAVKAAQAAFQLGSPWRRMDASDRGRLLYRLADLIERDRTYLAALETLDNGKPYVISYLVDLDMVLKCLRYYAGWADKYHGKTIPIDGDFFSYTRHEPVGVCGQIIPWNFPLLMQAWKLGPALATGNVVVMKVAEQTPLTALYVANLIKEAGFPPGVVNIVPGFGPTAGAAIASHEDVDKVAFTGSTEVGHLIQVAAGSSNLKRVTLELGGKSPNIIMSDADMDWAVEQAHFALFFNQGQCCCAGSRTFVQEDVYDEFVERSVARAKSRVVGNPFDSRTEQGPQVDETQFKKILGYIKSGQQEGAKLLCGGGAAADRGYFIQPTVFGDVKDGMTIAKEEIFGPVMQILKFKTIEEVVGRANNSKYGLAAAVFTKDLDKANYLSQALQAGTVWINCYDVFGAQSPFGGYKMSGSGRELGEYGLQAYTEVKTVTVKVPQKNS", "conditions": "Excerpt from Alcohol Clin Exp Res 1996.20.595-; read-out: ALDH inhibition; cited from earlier work"}}}
{"smiles": "CCN(CC)C(=S)SSC(=S)N(CC)CC", "note": "[DSF, disulfiram]", "values": [{"measurement": "IC50", "setting": "[1]; p53-MDM2 control interaction", "result": "> 1", "unit": "µM"}, {"measurement": "inhibition of p53-MDM2 interaction", "setting": "[1]; result in words", "result": "did not inhibit"}, {"measurement": "binding to CCR2", "setting": "[2]", "result": "did not bind"}, {"measurement": "tumor volume", "setting": "[3]", "result": "significantly smaller"}, {"measurement": "formation of lung metastatic lesions", "setting": "[4]; listed as Disulfiram", "result": "significantly reduced"}, {"measurement": "formation of lung metastatic lesions", "setting": "[4]; listed as disulfiram", "result": "effectively reduced"}, {"measurement": "cytotoxic activity on LLC tumor cells", "setting": "[5]", "result": "did not show cytotoxic activity"}, {"measurement": "growth-inhibiting action on B16F10 melanoma cells", "setting": "[6]", "result": "did not show any action"}, {"measurement": "cell migration mediated by CCL2", "setting": "[7]", "result": "inhibited"}, {"measurement": "IC50", "setting": "[8]", "result": 7.4, "unit": "µM"}]}
